Source: patent publication US6989385B2, “Pyrazole compounds useful as protein kinase inhibitors” (Vertex Pharmaceuticals Incorporated, priority 2000, dated 2006)

Target: T1, Aurora-2 (Homo sapiens, UniProt O14965)
T1 sequence (O14965 1-403): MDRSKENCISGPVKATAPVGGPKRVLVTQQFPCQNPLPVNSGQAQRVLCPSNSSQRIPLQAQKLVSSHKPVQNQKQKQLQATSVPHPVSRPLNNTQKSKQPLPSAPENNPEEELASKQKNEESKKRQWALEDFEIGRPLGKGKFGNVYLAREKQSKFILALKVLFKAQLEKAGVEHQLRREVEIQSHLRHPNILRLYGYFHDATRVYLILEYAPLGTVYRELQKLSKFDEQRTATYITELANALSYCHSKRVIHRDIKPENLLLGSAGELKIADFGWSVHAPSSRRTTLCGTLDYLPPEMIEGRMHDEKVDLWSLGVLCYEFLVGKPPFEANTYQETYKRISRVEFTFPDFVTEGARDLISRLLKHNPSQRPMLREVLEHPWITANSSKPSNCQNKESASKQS
Assay: Ki determination for the inhibition of Aurora-2 (coupled enzyme assay)
Assay type: biochemical
Details: 70 nM Aurora-2, 30° C.
Experimental: To an assay stock buffer solution containing 0.1 M HEPES 7.5, 10 mM MgCl2, 1 mM DTT, 25 mM NaCl, 2.5 mM phosphoenolpyruvate, […], 30 mg/ml pyruvate kinase, 10 mg/ml lactate dehydrogenase, 40 mM ATP, and 800 μM peptide (LRRASLG, American Peptide, Sunnyvale, Calif.) was added a DMSO solution of a compound of the present invention to a final concentration of 30 μM. The resulting mixture was incubated at 30° C. for 10 min. The reaction was initiated by the addition of 10 μL of Aurora-2 stock solution to give a final concentration of 70 nM in the assay. […] The Ki values were determined from the rate data as a function of inhibitor concentration.

SMILES: Cc1cc(Nc2cc(C)[nH]n2)nc(C(C)(C)c2ccccc2)n1 [IIId-20]
- Ki: 100 to 1000 nM
